From US7612081B2 (priority 2003, dated 2009)
Read-outs that look alike come from different tables or passages of the source.

Assays:
[1] = tested on: NCl—H460 non-microcytoma lung cancer cells; assay: Cytotoxic activity on NCl—H460 cells (sulforodamine B); conditions: for IC50: read-out: IC50 (product concentration that inhibits cell survival by 50%), 2 hours exposure, 72 hours recovery, mean ± SD
Method: NCl—H460 non-microcytoma lung cancer cells were kept in RPMI 1640 culture medium containing 10% FCS and 1% glutamine. The cytotoxicity test to analyse the activity of the molecules was performed as follows. The cells were seeded in a volume of 250 μl in 96-well plates and incubated for 2 hours at 37° C. with scalar concentrations of the products in a humidified atmosphere containing 5% CO2. At the end of the incubation, the molecules were removed by overturning the plates and adding sterile buffered saline solution (PBS) three times. The RPMI 1640 culture medium containing 10% FCS (200 μl) was added to the wells and the plates were incubated for another 72 hours. At the end of the incubation, the plates were overturned again and dried on paper, before adding 200 μl of PBS and 50 μl of 80% TCA. The plates were incubated again in ice for at least 1 hour. The TCA was removed by overturning the plates and the plates were first dried on paper and then washed three times by immersion in distilled water and overturning. The plates were dried first on paper and then in a thermostatically regulated incubator at 60° C. for 10 min. 200 μl of 0.4% sulforodamine B in 1% acetic acid were added to all wells. The plates were incubated at room temperature for another 30 min. The sulforodamine B was removed by overturning, the plates were washed by immersion in 1% acetic acid three times and then dried first on blotting paper and then in the thermostat at 60° C. for 10 min. Lastly, 200 μl of Tris base 10 mM were added to all wells and the plates were subjected to stirring for at least 20 min. The optical density was measured with a Multiskan spectrophotometer at 540 nm.

[2] = tested on: Saccharomyces cerevisiae yeast strain EKY3 (top1Δ), YCpGAL1-hTOP1G363C; assay: Yeast in-vivo spot test, G363C mutant; assay type: cell-based; conditions: 45 μM
Excerpt: (§1) To identify camptothecin derivatives that overcome the resistance to camptothecin induced by point mutations on topisomerase I DNA in the Saccharomyces cerevisiae yeast model, an in-vivo and an in-vitro system were used in parallel.
(§2) A number of mutations are present close to the active site of the enzyme (tyrosine 723) and others around position 363 which corresponds to a very well conserved region.
(§3) Before effecting the transformation of the yeasts, the yeasts were unfrozen and plated with a sterile bent glass rod in 90-mm plates containing sterile solid YPDa medium (10 g of yeast extract, 20 g of peptone, 20 g of dextrose, 0.7 g of adenine, 20 g of glucose, 20 g of agar per liter). Colonies formed after 48-72 hours in an incubator at 30° C.
(§4) One day before the transformation, a single yeast colony sample was taken with a sterile Gilson tip and inoculated in 5 ml of sterile liquid YPDA medium (the above-mentioned medium without agar). […]
(§5) Before treating the yeasts with the camptothecin derivatives (in-vivo spot test), the transformed colonies were inoculated with a Gilson tip in 5 ml sterile liquid CM medium. […] On the day after, the optical density of the colonies was measured at 600 nm and a dilution of the colonies was performed in order to obtain an optical density of 0.3. […] The colonies were incubated at 30° C. for 48-72 hours and analysed macroscopically.

[3] = tested on: Saccharomyces cerevisiae yeast strain EKY3 (top1Δ), YCpGAL-1hTOP1A653P; assay: Yeast in-vivo spot test, A653P mutant; assay type: cell-based; conditions: 45 μM
Excerpt: as §1, §2, §3, §4, §5

[4] = tested on: Saccharomyces cerevisiae yeast strain EKY3 (top1Δ), Topoisomerase I wild-type (TOP1); assay: Yeast in-vivo spot test, wild-type TOP1; assay type: cell-based; conditions: 45 μM
Method: One day before the transformation, a single yeast colony sample was taken with a sterile Gilson tip and inoculated in 5 ml of sterile liquid YPDA medium (the above-mentioned medium without agar). The colony was grown overnight under stirring at 30° C. […]

[5] = tested on: MKN-28 human gastric carcinoma; conditions: for LCK (1000 mm^3) (log cell kill): q4dx4; for TVI % (tumor volume inhibition): q4dx4, 20 days after last treatment
Method: Tumor fragments were inoculated on both flanks at day 0. Treatment started when tumors were just palpable. The molecule was given by oral route and intravenously according to the schedule q4d×4. During the treatment, animals were inspected every day for mortality. Physical appearance, behavior and general and local clinical signs of the mice will be observed daily. Any deviation from normality was recorded. All animals were weighed during the whole treatment period, in order to calculate the percent body weight loss due to the treatment.
Tumor volume inhibition % in treated over control tumors was evaluated 20 days after last treatment. To determine the antitumor activity of the drug, tumor diameters was measured biweekly with a Vernier caliper. The formula TV (mm^3)=[length (mm)×width (mm)^2]/2 was used, where the width and the length are the shortest and the longest diameters of each tumor, respectively.
When tumors reached a weight of about 2 g, the mice were sacrificed by cervical dislocation. LCK (log cell kill) as index of efficacy was calculated to evaluate the persistence of the effect of the molecule at the end of the treatment.

[6] = tested on: Saccharomyces cerevisiae yeast strain EKY3 (top1Δ), YCpGAL1-hTOP1K720E; assay: Yeast in-vivo spot test, K720E mutant; assay type: cell-based; conditions: 45 μM
Excerpt: as §1, §2, §3, §4, §5

## CCC1(O)C(=O)OCc2c1cc1n(c2=O)Cc2c-1nc1ccccc1c2C=NOCCCNC(=O)OC(C)(C)C (stereo not drawn) [ST2664, 7-[3-(N-tert-butoxycarbonyl)-amino-1-propoxyiminomethyl]20S-camptothecin]
[1]
  IC50: > 200 nM

## 7-[N-(N′-tert-butoxcarbonyl)-putrescinimino-methyl]-20S-camptothecin [ST2615]
[1]
  IC50: > 200 nM

## CCC1(O)C(=O)OCc2c1cc1n(c2=O)Cc2c-1nc1ccccc1c2C=NOCCCN(CCCCNC(=O)OC(C)(C)C)C(=O)OC(C)(C)C (centres unmarked) [ST2872]
[1]
  IC50: > 200 nM

## 7-[(N′, N″-tert-butoxycarbonyl)-spermidine-imino-methyl]-20S-camptothecin [ST2598]
[1]
  Cytotoxicity on the lung cancer line (in words): very potent cytotoxicity
  IC50: 15 ± 2 nM
[2]
  Phenotype of mutated enzyme G363C towards the derivative: resistant
[3]
  Phenotype of mutated enzyme A653P towards the derivative: resistant
[4]
  Phenotype of Topoisomerase I wild-type towards the derivative: sensitivity

## CC[C@@]1(O)C(=O)OCc2c1cc1n(c2=O)Cc2c-1nc1ccccc1c2C=NCC1CCN(C(=O)OC(C)(C)C)CC1 [ST2665]
[1]
  IC50: > 200 nM

## 7-[(N′,N″,N′″-tert-butoxycarbonyl)-spermine-imino-methyl]-20S-camptothecin [ST2544]
[1]
  IC50: 12.9 ± 1.8 nM
[2]
  Phenotype of mutated enzyme G363C towards the derivative: resistant
[3]
  Phenotype of mutated enzyme A653P towards the derivative: resistant
[5]; iv, 1 mg/kg
  LCK (1000 mm^3) (log cell kill): 0.2
  TVI % (tumor volume inhibition): 34%
[5]; iv, 2 mg/kg
  LCK (1000 mm^3) (log cell kill): 0.2
  TVI % (tumor volume inhibition): 36%
[5]; iv, 4 mg/kg
  LCK (1000 mm^3) (log cell kill): 0.8
  TVI % (tumor volume inhibition): 66%
[5]; p.o., 1 mg/kg
  LCK (1000 mm^3) (log cell kill): 0.1
  TVI % (tumor volume inhibition): 28%
[5]; p.o., 2 mg/kg
  LCK (1000 mm^3) (log cell kill): 0.5
[5]; p.o., 2 mg/kg, 2 mg/kg
  TVI % (tumor volume inhibition): 62%
[5]; p.o., 4 mg/kg, 4 mg/kg
  TVI % (tumor volume inhibition): 72%
[4]
  Phenotype of Topoisomerase I wild-type towards the derivative: sensitivity
[6]
  Phenotype of K720E mutant towards the derivative: sensitivity

## 7-[(N′,N″-Di-benzyloxycarbonyl)-spermidineiminomethyl]-20S-camptothecin [ST2729]
[1]
  IC50: 34 ± 7 nM
